# Values joined by “and” are separate entries in the source; they are usually repeats but may differ in a detail not shown here. Equal entries are not always repeated. Toxic doses and inconclusive results are not listed.
# Tested on: L1210 leukemia ip in BDF1 mice, survival T/C
# Assay: NCI In Vivo Anticancer Drug Screen. Data for tumor model L1210 Leukemia (intraperitoneal) in B6D2F1 (BDF1) mice
# Settings: endpoint: mean survival time, higher = longer survival
# Summary of the method: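 Each compound was tested against a transplantable tumor grown in mice. The endpoint was survival, with treated animals benchmarked against vehicle controls as a simple ratio.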
# [1] = dose: 5.0 mg/kg/injection, schedule: Q01DX009 (ip), vehicle: saline
# [2] = dose: 10.0 mg/kg/injection, schedule: Q01DX009 (ip), vehicle: saline
# [3] = dose: 20.0 mg/kg/injection, schedule: Q01DX009 (ip), vehicle: saline
# [4] = dose: 25.0 mg/kg/injection, schedule: Q04DX003 (ip), vehicle: saline
# [5] = dose: 100.0 mg/kg/injection, schedule: Q01DX001 (ip), vehicle: saline
# [6] = dose: 200.0 mg/kg/injection, schedule: Q01DX001 (ip), vehicle: saline
# [7] = dose: 12.5 mg/kg/injection, schedule: Q01DX009 (ip), vehicle: saline
# [8] = dose: 25.0 mg/kg/injection, schedule: Q01DX009 (ip), vehicle: saline
# [9] = dose: 50.0 mg/kg/injection, schedule: Q01DX009 (ip), vehicle: saline
# [10] = dose: 100.0 mg/kg/injection, schedule: Q01DX009 (ip), vehicle: saline
# [11] = dose: 100.0 mg/kg/injection, schedule: Q04DX003 (ip), vehicle: Klucel (hydroxypropylcellulose) (HPC)
# [12] = dose: 400.0 mg/kg/injection, schedule: Q01DX001 (ip), vehicle: saline
# [13] = dose: 100.0 mg/kg/injection, schedule: Q04DX003 (ip), vehicle: saline with Tween-80
# [14] = dose: 200.0 mg/kg/injection, schedule: Q04DX003 (ip), vehicle: saline with Tween-80
# [15] = dose: 400.0 mg/kg/injection, schedule: Q04DX003 (ip), vehicle: saline with Tween-80
# [16] = dose: 200.0 mg/kg/injection, schedule: Q04DX003 (ip), vehicle: Klucel (hydroxypropylcellulose) (HPC)
# [17] = dose: 100.0 mg/kg/injection, schedule: Q04DX003 (ip), vehicle: saline
smiles,measurement,setting,value
CC(=O)OCCN1CCN(CC/C=C2\c3ccccc3Sc3ccc(Cl)cc32)CC1,T/C,"dose: 2.0 mg/kg/injection, schedule: Q01DX009 (ip), vehicle: saline",100 % of control
same,T/C,[1],98 % of control and 115 % of control
same,T/C,[2],102 % of control
same,T/C,[3],111 % of control
same,T/C,[4],120 % of control
same,T/C,"dose: 40.0 mg/kg/injection, schedule: Q01DX009 (ip), vehicle: saline",117 % of control
same,T/C,[5],108 % of control
same,T/C,[6],114 % of control
C=CC(O)c1ccccc1 (stereo unspecified),T/C,"dose: 75.0 mg/kg/injection, schedule: Q01DX009 (ip), vehicle: saline with Tween-80",90 % of control
same,T/C,"dose: 75.0 mg/kg/injection, schedule: Q04DX003 (ip), vehicle: saline with Tween-80",89 % of control
same,T/C,"dose: 150.0 mg/kg/injection, schedule: Q01DX009 (ip), vehicle: saline with Tween-80",87 % of control
same,T/C,"dose: 150.0 mg/kg/injection, schedule: Q04DX003 (ip), vehicle: saline with Tween-80",109 % of control
same,T/C,"dose: 300.0 mg/kg/injection, schedule: Q01DX009 (ip), vehicle: saline with Tween-80",88 % of control
same,T/C,"dose: 300.0 mg/kg/injection, schedule: Q04DX003 (ip), vehicle: saline with Tween-80",105 % of control
CCn1c2ccccc2c2ccc(C(C)=O)cc21,T/C,"dose: 75.0 mg/kg/injection, schedule: Q01DX001 (ip), vehicle: carboxymethylcellulose (CMC)",95 % of control
same,T/C,"dose: 150.0 mg/kg/injection, schedule: Q01DX001 (ip), vehicle: carboxymethylcellulose (CMC)",95 % of control
same,T/C,"dose: 300.0 mg/kg/injection, schedule: Q01DX001 (ip), vehicle: carboxymethylcellulose (CMC)",97 % of control
O=C(Nc1ncccn1)Nc1cccc2ccccc12,T/C,"dose: 12.5 mg/kg/injection, schedule: Q04DX002 (ip), vehicle: Klucel (hydroxypropylcellulose) (HPC)",102 % of control
same,T/C,"dose: 25.0 mg/kg/injection, schedule: Q04DX002 (ip), vehicle: Klucel (hydroxypropylcellulose) (HPC)",97 % of control
same,T/C,"dose: 50.0 mg/kg/injection, schedule: Q04DX002 (ip), vehicle: Klucel (hydroxypropylcellulose) (HPC)",97 % of control
same,T/C,"dose: 100.0 mg/kg/injection, schedule: Q04DX002 (ip), vehicle: Klucel (hydroxypropylcellulose) (HPC)",92 % of control
same,T/C,"dose: 200.0 mg/kg/injection, schedule: Q04DX002 (ip), vehicle: Klucel (hydroxypropylcellulose) (HPC)",92 % of control
same,T/C,"dose: 400.0 mg/kg/injection, schedule: Q04DX002 (ip), vehicle: Klucel (hydroxypropylcellulose) (HPC)",95 % of control
NC(CSC(c1ccccc1)(c1ccccc1)c1ccc2ccccc2c1)C(=O)O (stereo unspecified),T/C,"dose: 0.74 mg/kg/injection, schedule: Q01DX009 (ip), vehicle: saline",124 % of control
same,T/C,"dose: 3.13 mg/kg/injection, schedule: Q01DX009 (ip), vehicle: saline",159 % of control
same,T/C,"dose: 6.25 mg/kg/injection, schedule: Q01DX009 (ip), vehicle: saline",187 % of control
same,T/C,"dose: 6.3 mg/kg/injection, schedule: Q01DX009 (ip), vehicle: other",166 % of control
same,T/C,[7],108 % of control
same,T/C,"dose: 25.0 mg/kg/injection, schedule: Q01DX009 (ip), vehicle: other",94 % of control
same,T/C,[8],225 % of control
same,T/C,[9],103 % of control
Cc1no[n+]([O-])c1[N+](=O)[O-],T/C,[1],100 % of control
same,T/C,[2],101 % of control
same,T/C,[3],102 % of control
C=CCC1(CCC)C(=O)NC(=O)NC1=O,T/C,[8],100 % of control
same,T/C,[9],112 % of control
same,T/C,[10],100 % of control
same,T/C,[11],92 % of control
CN(O)CC(=O)O,T/C,[5],95 % of control
same,T/C,[6],98 % of control
same,T/C,[12],97 % of control
CCCCCCCCCCCCC/C=N\NC(=O)CCCC(=O)N/N=C/CCCCCCCCCCCCC,T/C,"dose: 50.0 mg/kg/injection, schedule: Q01DX001 (ip), vehicle: other",93 % of control
same,T/C,"dose: 100.0 mg/kg/injection, schedule: Q01DX001 (ip), vehicle: other",91 % of control
same,T/C,"dose: 200.0 mg/kg/injection, schedule: Q01DX001 (ip), vehicle: other",93 % of control
same,T/C,"dose: 400.0 mg/kg/injection, schedule: Q01DX001 (ip), vehicle: other",98 % of control
OCCOC1CCCCC=C1Br (stereo unspecified),T/C,[13],113 % of control
same,T/C,[14],110 % of control
same,T/C,[15],102 % of control
O=C(NCCCl)NNC(=O)c1ccccc1,T/C,[11],117 % of control
same,T/C,[16],112 % of control
COc1cc(N(CCO)CCO)ccc1NC(=O)c1ccccc1,T/C,"dose: 12.5 mg/kg/injection, schedule: Q01DX001 (ip), vehicle: carboxymethylcellulose (CMC)",93 % of control
same,T/C,"dose: 12.5 mg/kg/injection, schedule: Q01DX009 (ip), vehicle: Klucel (hydroxypropylcellulose) (HPC)",104 % of control
same,T/C,"dose: 12.5 mg/kg/injection, schedule: Q04DX003 (ip), vehicle: Klucel (hydroxypropylcellulose) (HPC)",97 % of control
same,T/C,"dose: 25.0 mg/kg/injection, schedule: Q01DX001 (ip), vehicle: carboxymethylcellulose (CMC)",98 % of control
same,T/C,"dose: 25.0 mg/kg/injection, schedule: Q01DX009 (ip), vehicle: Klucel (hydroxypropylcellulose) (HPC)",104 % of control
same,T/C,"dose: 25.0 mg/kg/injection, schedule: Q04DX003 (ip), vehicle: Klucel (hydroxypropylcellulose) (HPC)",95 % of control
same,T/C,"dose: 50.0 mg/kg/injection, schedule: Q01DX009 (ip), vehicle: Klucel (hydroxypropylcellulose) (HPC)",97 % of control
same,T/C,"dose: 50.0 mg/kg/injection, schedule: Q04DX003 (ip), vehicle: Klucel (hydroxypropylcellulose) (HPC)",97 % of control
CC(C)CCN=C(N)N=C(N)N,T/C,[8],105 % of control
same,T/C,[9],107 % of control
same,T/C,[10],104 % of control
same,T/C,"dose: 100.0 mg/kg/injection, schedule: Q04DX002 (ip), vehicle: saline",100 % of control
CCN(CC)CCCOC(=O)c1ccc(N)cc1,T/C,[7],103 % of control
same,T/C,[8],97 % of control
same,T/C,[9],98 % of control
O=[N+]([O-])c1ccc(Cc2ccccc2)cc1 (tested in a mixture with another compound),T/C,"dose: 100.0 mg/kg/injection, schedule: Q04DX002 (ip), vehicle: saline with Tween-80",101 % of control
same,T/C,"dose: 200.0 mg/kg/injection, schedule: Q04DX002 (ip), vehicle: saline with Tween-80",101 % of control
same,T/C,"dose: 400.0 mg/kg/injection, schedule: Q04DX002 (ip), vehicle: saline with Tween-80",97 % of control
OCCN1CCN(Cc2cccc3ccccc23)CC1,T/C,[8],112 % of control
same,T/C,[4],101 % of control
same,T/C,[9],98 % of control
same,T/C,"dose: 50.0 mg/kg/injection, schedule: Q04DX003 (ip), vehicle: saline",102 % of control
same,T/C,[5],103 % of control
same,T/C,[10],102 % of control
same,T/C,[17],98 % of control
CCSC(C)C,T/C,[17],106 % of control
same,T/C,"dose: 200.0 mg/kg/injection, schedule: Q04DX003 (ip), vehicle: saline",107 % of control
same,T/C,"dose: 400.0 mg/kg/injection, schedule: Q04DX003 (ip), vehicle: saline",102 % of control
Cc1c(C2=NCC(C)S2)ccc(O)c1N (stereo unspecified),T/C,"dose: 62.5 mg/kg/injection, schedule: Q04DX002 (ip), vehicle: saline with Tween-80",93 % of control
same,T/C,"dose: 125.0 mg/kg/injection, schedule: Q04DX002 (ip), vehicle: saline with Tween-80",90 % of control
same,T/C,"dose: 250.0 mg/kg/injection, schedule: Q04DX002 (ip), vehicle: saline with Tween-80",93 % of control
CC(=O)Oc1ccc(C2C3=C(COC3=O)CC3=C2C(=O)OC3)cc1,T/C,"dose: 100.0 mg/kg/injection, schedule: Q01DX009 (ip), vehicle: saline with Tween-80",104 % of control
same,T/C,[13],96 % of control
same,T/C,"dose: 200.0 mg/kg/injection, schedule: Q01DX009 (ip), vehicle: saline with Tween-80",100 % of control
same,T/C,[14],97 % of control
same,T/C,"dose: 400.0 mg/kg/injection, schedule: Q01DX009 (ip), vehicle: saline with Tween-80",96 % of control
same,T/C,[15],96 % of control
O=C(Nc1ccc(Cl)cc1)Nc1ccccc1F,T/C,[14],91 % of control
same,T/C,[15],89 % of control
CCOC(=O)C(C#N)=C1CC(C)OC(C)C1 (stereo unspecified),T/C,[13],100 % of control
same,T/C,[14],97 % of control
same,T/C,[15],103 % of control
Oc1ccc2c(c1)CNCC2,T/C,[5],96 % of control
same,T/C,[6],98 % of control
same,T/C,[12],102 % of control
Cc1nc2[nH]c(=O)[nH]c(=O)c2[nH]1,T/C,[13],91 % of control
same,T/C,[14],101 % of control
same,T/C,[15],90 % of control
COC(=O)c1ccc(Cn2cnc3ncnc(Cl)c32)cc1,T/C,[11],92 % of control
same,T/C,[16],91 % of control
same,T/C,"dose: 400.0 mg/kg/injection, schedule: Q04DX003 (ip), vehicle: Klucel (hydroxypropylcellulose) (HPC)",105 % of control
